From US7968607B2, “Skin pore minimizers and skin elasticity improvers” (Koa Corporation, priority 2000, dated 2011)
Counter-ions that a name gives are not always drawn. Like-named read-outs stand apart in the source and are kept apart here.

How the values were obtained:
[1] = system: keratinocytes ("NHEK 6306", Clonetics); assay: Contraction of collagen gel seeded with keratinocytes; assay type: cell-based, human; settings: 1 hour after addition, area inside contracted ring, control (gel peeling alone) = 100
Experimental: • 1) After type I collagen (“Cellmatrix Type I-A”, Nitta Gelatin), “MCDB 153 medium” (Sigma Chemical Co.), 20 mM HEPES (Wako Pure Chemical Industries) and purified water were thoroughly mixed under ice cooling, 500 μL per well were added to a 24-well plate (Falcon), followed by warming at 37° C. in an incubator to effect gelation. Using MCDB 153 medium, 1 mL aliquots of keratinocytes (“NHEK 6306”, Clonetics) were seeded at 2×10^4 cells/cm^2 onto the collagen gels, respectively. Subsequent to incubation for 24 hours, the collagen gels were peeled off with a pipette tip from the culture dishes. Shortly after that, test substances prepared to a concentration as high as 100 times the final concentration were added 10 μL by 10 μL. Upon elapsed time of 1 hour after the addition, the gels were photographed using a “Minolta α707-si Camera” with “50 Macrolens”. Subsequent to development of the pictures, contracted rings were copied onto OHP sheets, the areas inside the contracted rings were determined by image analysis software, “Image-Pro PLUS” (Media Cybanetics, Inc.), and contraction ratios (%) were calculated supposing that the contraction ratio (%) of a control (gel peeling alone) was 100.

[2] = system: human skin fibroblasts (derived from a human fore skin); assay: Collagen gel tightening promoting ability (fibroblast-embedded collagen gel, dermis model); assay type: cell-based; settings: for activity at 15 µM / activity at 50 µM: read-out: Average gel volume
Experimental: Measurement was conducted on the ability to promote the tightening of a fibroblast-embedded collagen gel as a dermis model. The collagen gel was prepared following the procedure reported in a publication [J. Cell Science, 102, 315 (1992) or J. Invest. Dermatol., 93, 792 (1989)]. Described specifically, a solution of HEPES (250 mM) in a 0.05 N sodium hydroxide solution, a 5-fold concentrate of DMEM (“GIBCO DMEM”, low glucose), FCS (2%, Fetal Calf Serum) and purified water were added under ice cooling to a collagen gel solution (product of Nitta Gelatin Inc., “type 1-A” (3.0 mg/mL, pH=3)), and finally, a suspension of human skin fibroblasts (derived from a human fore skin) was added. After the resulting mixture was thoroughly stirred to eliminate bubbles, 600 μL per well was added to 24-well dishes, followed by immediate warming at 37° C. in an incubator to effect gelation. Three to four hours later, 1 mL of serum-free DMEM medium was added to each of the wells, and the gels were separated at peripheries thereof from the corresponding dishes and were brought into a floating state. Eighteen hours after that, the medium was replaced with serum-free DMEM media which contained 100 to 10 μM of test substances, respectively, and incubation was conducted further for 48 hours.
Volume measurement of the gels was conducted by a weight measuring method similar to that reported in the publication [J. Cell Science, 102, 315 (1992)]. Described specifically, subsequent to immobilization with 10% formalin (4° C., 24 hours), the surface tension of water was reduced by the addition of Triton X100 (product of Wako Pure Chemical Industries) (1%), and the weights were measured.
Measurement results of relative volumes for the respective compounds as calculated supposing that the volume of the control was 100% are presented in Table 3.

[3] = system: ear skin pores of New Zealand white rabbits; assay: Rabbit ear skin pore size after topical application; assay type: in vivo; settings: 2% solution in ethanol, 8 weeks
Experimental: Three of New Zealand white rabbits (male, about 2.5 kg) which ear skin pores were conspicuous were used. A 2% solution of Compound 9 (solvent: ethanol) was applied onto the left ear of each rabbit, and the solvent was applied onto the right ear of the rabbit as a control site, each on the inner side of the ala, twice a day, 150 μL each time.
Upon elapsed time of 8 weeks after the initiation of the application, the skin was collected, and the size of skin pores was measured by image analysis. Described specifically, each rabbit was sacrificed and then, his ears were collected. A scalpel was inserted into each ear sample around the applied site, and the skin was peeled off above the cartilage. At that time, care was exercised to avoid stretching of the skin. The skin was spread over a cork board and then, subjected to biopsy with a punch of 6 mm in diameter to collect the skin from six (6) locations on each ear. The collection was conducted such that skin samples were obtained from the same locations on both the left and right ears. […] On the image, the areas of the individual skin pores were measured, so that the skin pore area on each punched skin sample was calculated. An average of the skin pore areas on the six punched skin samples was recorded as the size of skin pores on the corresponding ear sample of the corresponding rabbit.

[4] = 15 μM, 48 hours, relative volume, control = 100%
[5] = 50 μM, 48 hours, relative volume, control = 100%
[6] = Homo sapiens, Skin fibroblast, 48 h
[7] = Homo sapiens, Skin fibroblast, 15 μM, 48 hours, relative volume, control = 100%
[8] = Homo sapiens, Skin fibroblast, 50 μM, 48 hours, relative volume, control = 100%

## 1-(2-decyltetradecyl)glycerol-3-phosphate monoarginine salt [Compound 41]
[1]; 10 μM
  Contraction ratio (%): 87.3%

## 1-(2-dodecylhexadecyl)-glycerol-3-phosphate monoarginine salt [Compound 42]
[1]; 10 μM
  Contraction ratio (%): 87.7%

## 1-(2-heptylundecyl)-glycerol-3-phosphate monoarginine salt [Compound 32]
[1]; 10 μM
  Contraction ratio (%): 52.2%
[2]; [4]
  Average gel volume: 92%
[2]; [5]
  Average gel volume: 75%

## 1-(2-hexyldecyl)-glycerol-3-phosphate monoarginine salt [Compound 33]
[1]; 10 μM
  Contraction ratio (%): 63.4%

## 1-(2-octyldodecyl)-glycerol-3-phosphate monoarginine salt [Compound 34]
[1]; 10 μM
  Contraction ratio (%): 67.3%

## 1-[2-(1,3,3-trimethylbutyl)-5,7,7-trimethyloctyl]-glycerol-3-phosphate monoarginine salt [Compound 35]
[1]; 10 μM
  Contraction ratio (%): 66.9%

## 1-dodecylglycerol-3-phosphate monoarginine salt [Compound 36]
[1]; 10 μM
  Contraction ratio (%): 71.3%

## 1-dodecylpropanediol-3-phosphate disodium salt [Compound 26]
[1]; 1 μM
  Contraction ratio (%): 73.5%

## 1-hexadecylglycerol-3-phosphate monoarginine salt [Compound 38]
[1]; 10 μM
  Contraction ratio (%): 81.4%

## 1-isostearylglycerol-3-phosphate monoarginine salt [Compound 31-A]
[1]; 10 μM
  Contraction ratio (%): 56.6%
[2]; [4]
  Average gel volume: 94%
[2]; [5]
  Average gel volume: 79%

## 1-isostearylglycerol-3-phosphate monoarginine salt [Compound 31-B]
[1]; 10 μM
  Contraction ratio (%): 56.7%

## 1-octadecylglycerol-3-phosphate monoarginine salt [Compound 39]
[1]; 10 μM
  Contraction ratio (%): 70.2%

## 1-oleylglycerol-3-phosphate monoarginine salt [Compound 40]
[1]; 10 μM
  Contraction ratio (%): 63.0%

## 1-tetradecylglycerol-3-phosphate monoarginine salt [Compound 37]
[1]; 10 μM
  Contraction ratio (%): 63.3%

## CCCCCCCCCCCCCCCCCCOCC(O)COS(=O)(=O)O (centres unmarked) [Compound 2, 1-octadecylglycerol-3-sulfate sodium salt]
[2]; Homo sapiens, Skin fibroblast, 10 μM, 48 hours, relative volume, control = 100%
  activity at 10 µM: 97%
[2]; Homo sapiens, Skin fibroblast, 30 μM, 48 hours, relative volume, control = 100%
  activity at 30 µM: 92%

## CCCCCCCCCCCCOCC(O)COP(=O)(O)O (centres unmarked) [Compound 5, 1-dodecylglycerol-3-phosphate disodium salt]
[2]; [6]
  activity at 15 µM: 94%
  activity at 50 µM: 83%

## CCCCCCCCCCCCCCOCC(O)COP(=O)(O)O (centres unmarked) [Compound 6, 1-tetradecylglycerol-3-phosphate disodium salt]
[2]; [7]
  activity at 15 µM: 91%
[2]; [8]
  activity at 50 µM: 88%

## CCCCCCCCCCCCCCCCOCC(O)COP(=O)(O)O (centres unmarked) [Compound 7, 1-hexadecylglycerol-3-phosphate disodium salt]
[2]; [7]
  activity at 15 µM: 94%
[2]; [8]
  activity at 50 µM: 79%

## CCCCCCCCCCCCCCCCCCOCC(O)COP(=O)([O-])[O-].[Na+].[Na+] (centres unmarked) [Compound 8, 1-octadecylglycerol-3-phosphate disodium salt]
[1]; 50 μM
  Contraction ratio (%): 77.0%
[2]; [6]
  activity at 15 µM: 93%
  activity at 50 µM: 77%

## CC(C)CCCCCCCCCCCCCCCOCC(O)COP(=O)([O-])[O-].[Na+].[Na+] (centres unmarked) [Compound 9, 1-isostearylglycerol-3-phosphate disodium salt]
[3]; 150 μL twice a day on ear, control sites 0.022 mm^2
  skin pore area: 0.015 mm^2
[3]; twice a day, versus solvent-applied ear
  smaller in skin pore area than the control sites: about 30%
[1]; 50 μM
  Contraction ratio (%): 62.3%

## CCCCCCCCCCCCO[C@@H]1O[C@H](COS(=O)(=O)[O-])[C@@H](O)[C@H](O)[C@H]1O.[Na+] [Compound 14, 1-β-O-dodecylglucopyranoside-6-sulfate sodium salt]
[1]; 50 μM
  Contraction ratio (%): 90.0%

## CCCCCCCCCCCCCCO[C@H]1O[C@H](COS(=O)(=O)[O-])[C@H](O)[C@H](O)[C@H]1O.[Na+] [Compound 23, 1-α-O-tetradecylgalactopyranoside-6-sulfate sodium salt]
[1]; 10 μM
  Contraction ratio (%): 60.7%

## CCCCCCCCCCCCCCO[C@@H]1O[C@H](COS(=O)(=O)[O-])[C@H](O)[C@H](O)[C@H]1O.[Na+] [Compound 24, 1-β-O-tetradecylgalactopyranoside-6-sulfate sodium salt]
[1]; 10 μM
  Contraction ratio (%): 84.9%

## CCCCCCCCCCCCOCCCOS(=O)(=O)[O-].[Na+] [Compound 25, 1-dodecylpropanediol-3-sulfate sodium salt]
[1]; 10 μM
  Contraction ratio (%): 88.0%

## CCCCCCCCCC(CCCCCCC)COCC(O)COP(=O)([O-])[O-].[Na+].[Na+] (centres unmarked) [Compound 28, 1-(2-heptylundecyl)glycerol-3-phosphate disodium salt]
[1]; 10 μM
  Contraction ratio (%): 48.3%

## CC(C)CCCCCCCCCCCCCCCC(O)[C@@H](O)[C@@H](O)[C@H](O)[C@@H](CO)OP(=O)([O-])[O-].[Na+].[Na+] (some centres unmarked) [Compound 29, 1-isostearylmannitol-5-phosphate disodium salt]
[1]; 10 μM
  Contraction ratio (%): 53.3%

## CC(C)CCCCCCCCCCCCCCCC(O)[C@@H](O)[C@@H](O)[C@H](O)[C@@H](CO)OS(=O)(=O)[O-].[Na+] (some centres unmarked) [Compound 30, 1-isostearylmannitol-5-sulfate sodium salt]
[1]; 10 μM
  Contraction ratio (%): 56.8%

## dodecylglucopyranosidephosphate disodium salt mixture [Compound 27]
[1]; 10 μM
  Contraction ratio (%): 67.0%

## octylglucopyranosidesulfate sodium salt mixture [Compound 18]
[1]; 50 μM
  Contraction ratio (%): 90.1%
